One experiment deals with Nocardia channel. The following applies: ref [25]; cited from earlier work. From the text: Binding and translocation can be distinguished using the voltage dependency of the association and disassociation rates. If the time spent by a charged molecule inside the channel increases with increasing voltage, we conclude that the molecule is pulled inside on one side of the channel without being translocated. On the other hand, if the residence time decreases with increasing voltage we conclude that the molecule is able to follow the electric field gradient leaving faster to the other side. In the case of Hepta-arginine, the residence time increased from ~100 to 410 µs with increa ...

Another experiment deals with MOMP channel. As to the kind of experiment: Single-channel ion-current measurement of MOMP in planar lipid bilayer (peptide binding and translocation). The following applies: for ion-current blockage of MOMP monomer: 3 µM peptide, +125 mV; for kon (association rate) / koff (dissociation rate): 10 µM peptide, single MOMP monomer (MOMP cis); for kon (association rate): DPhPC bilayer; for Ka (equilibrium binding constant): Ka = kon/koff; for on-rate (range given): Penta- and Hepta-arginine together; for koff (dissociation rate): koff = 1/τ; for association rate kon as a function of applied voltage: +150 to +250 mV, Penta- vs Hepta-arginine, Fig. 3A; for translocation across MOMP: concluded from voltage dependence of ion-current fluctuations; for residence time, cis vs trans peptide addition / frequency of binding events, cis vs trans peptide addition: control: peptide on cis (ground) side; for residence time, cis vs trans peptide addition: –125 to –250 mV; for frequency of binding events, cis vs trans peptide addition: –150 and –250 mV; for threshold potential for successful translocation: peptide trans, MOMP cis. More on the design: species or system Campylobacter jejuni (strain 85 H). How it is done: The planar lipid bilayer was formed using solvent free lipid bilayer technique, [29]. In brief, the cuvettes used for our bilayer experiments consist of cis (electrical ground and side of protein addition if not otherwise indicated) and trans chambers separated by a 25 µm thick Teflon film (Goodfellow, Cambridge, UK) carrying an aperture with a diameter of 40–70 µm. Prior to forming a lipid bilayer, the aperture is pre-painted with 1 μl of 1% hexadexane in hexane. 5% solution of DPhPC in hexane is commonly used as lipid stock. The chambers are filled with electrolyte solution which typically consists of 1 M KCl, 10 mM MES, pH 6.0 with a total solution volume of 2.5 ml. On top of the aqueous phase about 1 μl of the lipid stock solution is placed. After 10 min allowing for evaporation of solvent, the membrane is formed by raising and lowering the water level. To investigate the outer membrane protein of C. jejuni, MOMP was added to the cis (ground) side of the chamber to a final concentration of 5 ng/ml and the channel insertion was facilitated by rapid mixing of the content of the chamber while applying a transmembrane potential of −199 mV. Electrical recordings were made through a pair of Ag/AgCl electrodes (World Precision Instruments, Sarasota, FL, USA), attached to an Axon Instruments 200B amplifier (Axon Instruments Inc., Sunnyvale, CA, USA) in the voltage clamp mode. Data were filtered by a low pass Bessel filter at 10 kHz and directly saved into the computer memory with a sampling frequency of 50 kHz. Data analysis was performed using Clampfit software of version 10.4 (Axon Instruments Inc., Sunnyvale, CA, USA). To obtain quantitative information on the interaction of peptides with the channel we assume that peptide binding or penetration to the channel cause sufficiently strong reduction of the ion-current compared to the typical background noise. […] This is even more pronounced for longer peptides (Fig. 1C and D).
Fig. 1 Typical ion-conductance traces of monomeric MOMP in presence of poly-arginines at +125 mV. A. In the absence of peptides; B. 3 µM of Tri-arginine; C. […] Experimental conditions: 1 M KCl, 10 mM MES, pH 6.0, T= 20 °C. The peptide is added to the trans compartment of the cuvette corresponding to the electrode at positive voltage. For the sake of clarity the traces were filtered at 5 kHz. MOMP is added on the cis (ground) side (n = 4).
For further analysis we should note that in our experiment we work under dilute concentrations and thus, the number of entries is in good approximation proportional to the concentration of the peptides in solution. The on-rate kon (association rate) is obtained by counting the number of ion-current blockage events per time n [s^−1] divided by the concentration [c] of the peptide, [26], [29], [30]. Furthermore, in some cases we have trimeric MOMP and the ion-current blockages may originate independently from one of the three monomers. kon=n/3[c]
On the other hand the opening is a statistical event and correlated to the strength of the binding. A channel which is closed at t = 0 will have the probability R(t) to open at time t. Within the above described simple binding model an exponential function R(t) = e^-t/τ. Fitting the life-time distribution of a closed channel by an exponential parameter τ (or dwell time) yields the off-rate (dissociation rate) koff = 1/τ [30]. The equilibrium binding constant Ka [M^−1] of the peptide to the channel is given by the ratio of the rates Ka = kon/koff.
Fig. 2 Analysis of the ion-current fluctuations. A. Hepta-arginine concentration dependence of binding events; data were analysed at applied voltages, +150 and +250 mV; and B. Frequency of binding events of the peptide (10 µM) vs. applied transmembrane potential. Experimental conditions: 1 M KCl, 10 mM MES, pH 6.0, T= 20 °C. MOMP is added on the cis (ground) side (n = 4).
A. Voltage dependence of the on-rate; and B. off-rate. […]

Where [1] appears, read: trans side, 1 M KCl, 10 mM MES, pH 6.0, 20 °C, n = 4.
[2] abbreviates: +150 mV, trans side, 1 M KCl, 10 mM MES, pH 6.0, 20 °C, n = 4.
[3] abbreviates: +150 mV, 1 M KCl, 10 mM MES, pH 6.0, 20 °C.
[4] abbreviates: +150 mV, 10 µM, trans side, 1 M KCl, 10 mM MES, pH 6.0, 20 °C.
The mark [5] stands for this setting: +175 mV, trans side, 1 M KCl, 10 mM MES, pH 6.0, 20 °C, n = 4.
The mark [6] stands for this setting: +175 mV, 1 M KCl, 10 mM MES, pH 6.0, 20 °C.
Where [7] appears, read: +250 mV, trans side, 1 M KCl, 10 mM MES, pH 6.0, 20 °C, n = 4.
[8] abbreviates: +250 mV, 1 M KCl, 10 mM MES, pH 6.0, 20 °C.
Where [9] appears, read: 1 M KCl, 10 mM MES, pH 6.0, 20 °C.

For the substance “H-RRRRR-OH [Penta-arginine, H-RRRRR-OH trifluoroacetate salt, Mw: 0.798 kDa, from Bachem AG]”, the “voltage for pulling peptide through Nocardia channel” value with Nocardia channel is on record as “> –175 mV”. In the experiment on MOMP channel, the “strength of channel–peptide interaction (order)” value (“strength” below) is “Hepta-arginine > Penta-arginine > Tri-arginine”, the “association rate kon as a function of applied voltage” value is “almost identical increasing values” and the “translocation across MOMP” value was “translocate across the MOMP channel”. Besides, the “ion-current blockage of MOMP monomer” value in the experiment on MOMP channel (setting [1]) is “complete monomer blockage”. In the experiment with MOMP channel (setting [2]), the “kon (association rate)” value is reported as 12.9 ± 1.2 (M^−1 s^−1) × 10^6 and the “koff (dissociation rate)” value is recorded as 6.2 ± 0.3 (s^−1) × 10^3. In the experiment on MOMP channel (setting [3]), the “Ka (equilibrium binding constant)” value is on record as 2.0 ± 0.5 (M^−1) × 10^3. Also, in the experiment with MOMP channel (setting [4]), the “on-rate (range given)” value is reported as 13 ± 2 10^6 M^−1 s^−1. In the experiment with MOMP channel (setting [5]), the “kon (association rate)” value was 20.4 ± 1.2 (M^−1 s^−1) × 10^6 and the “koff (dissociation rate)” value is 5.0 ± 0.6 (s^−1) × 10^3. Moreover, the “Ka (equilibrium binding constant)” value with MOMP channel (setting [6]) is 4.1 ± 0.3 (M^−1) × 10^3. In the experiment on MOMP channel (setting [7]), the “kon (association rate)” value is recorded as 34.7 ± 0.8 (M^−1 s^−1) × 10^6 and the “koff (dissociation rate)” value is 10.3 ± 0.8 (s^−1) × 10^3. In addition, the “Ka (equilibrium binding constant)” value in the experiment with MOMP channel (setting [8]) is 3.3 ± 0.2 (M^−1) × 10^3. For the same substance, the “koff relative to Hepta-arginine” value with MOMP channel (Fig. 3B, 10 µM, trans side) is on record as “about twice higher off-rates”. Also, in the experiment with MOMP channel (n = 4), the “residence time, cis vs trans peptide addition” value is reported as “did not reveal significant differences” and the “frequency of binding events, cis vs trans peptide addition” value is given as “did not reveal significant differences”. Moreover, the permeation vs voltage entry in the experiment on MOMP channel (increasing voltages) was “permeated faster with increasing voltages”. The “threshold potential for successful translocation” value in the experiment with MOMP channel (setting [9]) is listed as “+175 mV”.

For the substance “H-RRRRRRR-OH [Hepta-arginine, H-RRRRRRR-OH trifluoro acetate salt, Mw: 1.111 kDa, from Bachem AG]”, the “voltage for pulling peptide through Nocardia channel” value in the experiment on Nocardia channel is recorded as above −150 mV. For the same substance, in the experiment on MOMP channel, the “strength” value was “Hepta-arginine > Penta-arginine > Tri-arginine”, the “association rate kon as a function of applied voltage” value is on record as “almost identical increasing values” and the “translocation across MOMP” value is listed as “translocate across the MOMP channel”. Moreover, the “ion-current blockage of MOMP monomer” value with MOMP channel (setting [1]) was “complete monomer blockage”. Moreover, in the experiment on MOMP channel (1 to 10 µM, +150 and +250 mV, n = 4), the “number of binding events vs peptide concentration” value was “the number of binding events increased with the concentration of the peptide”. In addition, the “binding vs translocation, low voltage” value with MOMP channel (+125 to +175 mV, 10 µM) is “binds to channel without being translocated”. For the same substance, in the experiment on MOMP channel (setting [2]), the “kon (association rate)” value is reported as 14.5 ± 1.5 (M^−1 s^−1) × 10^6 and the “koff (dissociation rate)” value is recorded as 3.2 ± 0.1 (s^−1) × 10^3. Further, the “Ka (equilibrium binding constant)” value in the experiment on MOMP channel (setting [3]) was 4.4 ± 0.3 (M^−1) × 10^3. Also, the “on-rate (range given)” value in the experiment on MOMP channel (setting [4]) is listed as 13 ± 2 10^6 M^−1 s^−1. Further, in the experiment on MOMP channel (setting [5]), the “kon (association rate)” value is given as 22.2 ± 0.8 (M^−1 s^−1) × 10^6 and the “koff (dissociation rate)” value is 2.6 ± 0.3 (s^−1) × 10^3. The “Ka (equilibrium binding constant)” value with MOMP channel (setting [6]) was 8.5 ± 0.2 (M^−1) × 10^3. The “reduction in residence time with voltage” value in the experiment with MOMP channel (+175 to +250 mV) is “reduction of one-fold”. In addition, the “binding vs translocation, high voltage” value with MOMP channel (+175 to +250 mV, 10 µM) is listed as “successful translocation of the peptide”. Further, in the experiment on MOMP channel (setting [7]), the “kon (association rate)” value was 39.1 ± 0.5 (M^−1 s^−1) × 10^6 and the “koff (dissociation rate)” value is 5.0 ± 0.8 (s^−1) × 10^3. Moreover, in the experiment on MOMP channel (setting [8]), the “Ka (equilibrium binding constant)” value is 7.7 ± 0.3 (M^−1) × 10^3. In addition, in the experiment on MOMP channel (n = 4), the “residence time, cis vs trans peptide addition” value was “did not reveal significant differences” and the “frequency of binding events, cis vs trans peptide addition” value was “did not reveal significant differences”. For the same substance, the “ion-current blockage, reverse addition” value in the experiment with MOMP channel (peptide on cis (ground) side, MOMP on trans side, negative voltages) is “strong monomer blockages with negative voltages”. In addition, the “residence time, end of decrease” value in the experiment with MOMP channel (peptide on cis (ground) side, MOMP on trans side, –125 to –250 mV (Fig. S5), final value, 1 M KCl, 10 mM MES, pH 6.0, 20 °C, n = 4) came to 200 µs. The “residence time, start of decrease” value in the experiment with MOMP channel (peptide on cis (ground) side, MOMP on trans side, –125 to –250 mV (Fig. S5), starting value, 1 M KCl, 10 mM MES, pH 6.0, 20 °C, n = 4) stood at 410 µs. Also, the “threshold potential for successful translocation” value in the experiment on MOMP channel (setting [9]) is given as “+175 mV”.

Regarding Tri-arginine, the “strength” value with MOMP channel is listed as “Hepta-arginine > Penta-arginine > Tri-arginine”. Also, the “ion-current blockage of MOMP monomer” value with MOMP channel (setting [1]) is “visible but very short and not fully resolvable monomer blockages”. The residence time in the experiment with MOMP channel (+125 to +250 mV, 10 µM, trans side (MOMP cis), corresponds to time resolution of the instrument, 1 M KCl, 10 mM MES, pH 6.0, 20 °C, n = 4) is ~ 70 ± 5 µs.

These data come from article PMC5614690, “Peptide translocation across MOMP, the major outer membrane channel from Campylobacter jejuni” (Biochemistry and Biophysics Reports, 2017).
